assay: Human HepG2 cell viability assay in 384 well format; assay type: toxicity, cell-based; set-up: dose 125 nL, time 70.5 hour; concentration not given beside the values; conditions: HepG2 cells, read-out: Inhibition

Structure (SMILES)	cytotoxicity at 70.5 h [%]
O=C(c1cccc2ncccc12)N1CCC(Nc2cccnn2)CC1	-3.36
CS(=O)(=O)c1cccc(C(N)c2ccccc2)c1 (stereo unspecified)	-1.27
Cc1cnc(CNC(=O)N(CCCO)C2CCc3ccccc32)s1 (stereo unspecified)	0.605
CN(Cc1noc(C2CC2)n1)C1CCN(CCc2cnn(C)c2)C1 (stereo unspecified)	14.4
CC(C)c1cnc(CN(C)C2CCN(CCCc3cnn(C)c3)C2)o1 (stereo unspecified)	20.9
c1ccc(-c2nc(CN3CCn4c(nnc4C4CC4)C3)co2)cc1	-9.3
CN(CC(=O)NC1(C)CCS(=O)(=O)C1)Cc1ccc(F)c(F)c1 (stereo unspecified)	3.42
COc1cccc(CN(C)CC(=O)NC2(C)CCS(=O)(=O)C2)c1 (stereo unspecified)	-15.4
Cc1cc(C(=O)N2CCN(Cc3ccsc3)CC2)c(C)n1C1CC1	-14.9
c1ccc2c(OCCN3CCn4c(nnc4C4CC4)C3)cccc2c1	2.06
c1ccc(Cc2nnc(CN3CCn4c(nnc4C4CC4)C3)o2)cc1	-13.3
O=C(NCCN1C(=O)c2ccccc2C1=O)c1scnc1Cl	-7.67
NC(=O)CN1CCCN(C(=O)Cc2ccc(Br)cc2)CC1	-13.7
O=C(NCCNC(=O)c1scnc1Cl)c1ccoc1	5.67
COc1ccc(CN2CCN(C(=O)c3ccc(C)n3C)CC2)cc1	-11.9
Cc1csc(N2CCCN(C(=O)c3occc3C)CC2)n1	1.54
NC(=O)CN1CCCN(C(=O)Cc2ccc(F)cc2)CC1	-13.3
NC(=O)CN1CCCN(C(=O)Cc2cccc(C(F)(F)F)c2)CC1	4.42
Cc1ccc(C(=O)N2CCN(Cc3cccs3)CC2)n1C	-14.9
Cc1ccoc1-c1nnc(CN2CCn3c(C)nnc3C2)o1	-0.634
Cc1ncc2c(n1)CN(CC(=O)Nc1ccc(Cl)cn1)CC2	-13.8
CCc1ncc2c(n1)CN(CC(=O)Nc1cc(C)no1)CC2	-0.924
Cc1ccc(NC2CCN(C(=O)c3cc(C)sc3C)CC2)nn1	-11.8

Structure (SMILES)	cytotoxicity at 70.5 h [%]
Cc1ccoc1-c1nnc(CN2CCn3c(nnc3C(C)C)C2)o1	-2.59
Cc1ncc(CN2CCCC(c3cc(C(F)(F)F)[nH]n3)C2)s1 (stereo unspecified)	-1.49
CCc1ncc2c(n1)CN(CC(=O)Nc1cc(C)on1)CC2	12
Cc1csc(N2CCCN(C(=O)c3csc(C)n3)CC2)n1	-10.6
Cc1nn(C)c(N(C)C)c1CNCc1ccc(OCCN(C)C)cc1	22.3
COc1c(CNCc2ccc(OCC(N)=O)cc2)c(C)nn1C	7.56
OC(COCc1cccs1)CN1CCc2c(ncn2C2CC2)C1 (stereo unspecified)	-2.16
CCOCCN1CCN(Cc2cccc(C(=O)N(C)C)c2)CC1C (stereo unspecified)	-9.62
CCc1noc(C(C)N2CCN(CC)CC2)n1 (stereo unspecified)	-8.24
CCc1noc(C(C)N2CCC(O)CC2)n1 (stereo unspecified)	-10.2
Cc1cnn(CC2CCCN2C(=O)c2ccc(C(N)=O)cn2)c1 (stereo unspecified)	-10.6
O=C1CCC(C(=O)NCc2nn(-c3ccccc3)c3c2CCC3)CN1 (stereo unspecified)	4.23
CCn1c(C)cc(C(=O)N2CCCC(n3nc(C)nc3C)C2)c1C (stereo unspecified)	-7.33
CCn1nc2c(cc1=O)CN(Cc1nc(-c3ccccn3)no1)CC2	-1.12
CCn1nc2c(cc1=O)CN(Cc1nc(-c3ccsc3)no1)CC2	-22.4
CC(C)c1cc(CNC(=O)N2CCC(Cc3cnn(C)c3)C2)on1 (stereo unspecified)	-11.4
O=C(NCc1nn(-c2ccccc2)c2c1CCC2)N1CCSCC1	32.7
CCn1ccnc1CN1CCN(CC(O)c2ccccc2)CC1 (stereo unspecified)	-15.4
CC(C)c1ncncc1C(=O)NCCN1CCCS1(=O)=O	-12.7
Cc1cccc(C(=O)N2CCCN(Cc3cnn(C)c3)CC2)n1	-19.9
COc1cccc(COCC(=O)N2CCCC(n3ccnc3C)C2)c1 (stereo unspecified)	-15.7
CCn1ccnc1CN1CCCN(C(=O)c2cccc(C#N)c2)CC1	-15.8
Cc1ccc(C(N)c2cccc(S(C)(=O)=O)c2)c(C)c1 (stereo unspecified)	-7.42
